Experiments:
Experiment in all cases: KINOMEscan competition binding
Details in all cases: compound 10.0 µM
MYLK2 (human) = MYLK2 (human) (UniProt Q9H1R3)
CSNK1G3 (human) = CSNK1G3 (human) (UniProt Q9Y6M4)
TAOK2 (human) = TAOK2 (human) (UniProt Q9UL54)
[1] = system: ABL1 (human), P00519 [Y253F]
DAPK2 (human) = DAPK2 (human) (UniProt Q9UIK4)
PLK4 (human) = PLK4 (human) (UniProt O00444)
MAP3K2 (human) = MAP3K2 (human) (UniProt Q9Y2U5)
MAPK14 (human) = MAPK14 (human) (UniProt Q16539)
CAMK2A (human) = CAMK2A (human) (UniProt Q9UQM7)
PIK3CD (human) = PIK3CD (human) (UniProt O00329)
MKNK1 (human) = MKNK1 (human) (UniProt Q9BUB5)
[2] = molecular target: JAK1 JH1 catalytic (human) (UniProt P23458)
RPS6KB1 (human) = RPS6KB1 (human) (UniProt P23443)
NEK1 (human) = NEK1 (human) (UniProt Q96PY6)
SNRK (human) = SNRK (human) (UniProt Q9NRH2)
TRPM6 (human) = TRPM6 (human) (UniProt Q9BX84)
CDC42BPB (human) = CDC42BPB (human) (UniProt Q9Y5S2)
[3] = system: FLT3 (human), P36888 [D835H]
[4] = system: MET (human), P08581 [Y1235D]
PAK2 (human) = PAK2 (human) (UniProt Q13177)
MAP3K6 (human) = MAP3K6 (human) (UniProt O95382)
MAP3K10 (human) = MAP3K10 (human) (UniProt Q02779)
MAP4K5 (human) = MAP4K5 (human) (UniProt Q9Y4K4)
FYN (human) = FYN (human) (UniProt P06241)
NUAK1 (human) = NUAK1 (human) (UniProt O60285)
[5] = molecular target: TYK2 JH1 catalytic (human) (UniProt P29597)
RPS6KA4 KD1 (human) = RPS6KA4 KD1 (human) (UniProt O75676)
STK11 (human) = STK11 (human) (UniProt Q15831)
PRKCE (human) = PRKCE (human) (UniProt Q02156)
BRSK1 (human) = BRSK1 (human) (UniProt Q8TDC3)
GRK4 (human) = GRK4 (human) (UniProt P32298)
PIM1 (human) = PIM1 (human) (UniProt P11309)
MAP3K3 (human) = MAP3K3 (human) (UniProt Q99759)
CDK5 (human) = CDK5 (human) (UniProt Q00535)
DCLK2 (human) = DCLK2 (human) (UniProt Q8N568)
MAPK12 (human) = MAPK12 (human) (UniProt P53778)
STK35 (human) = STK35 (human) (UniProt Q8TDR2)
MAP2K1 (human) = MAP2K1 (human) (UniProt Q02750)
FER (human) = FER (human) (UniProt P16591)

Sequence of CDK5 (human) (Q00535 whole entry, looked up): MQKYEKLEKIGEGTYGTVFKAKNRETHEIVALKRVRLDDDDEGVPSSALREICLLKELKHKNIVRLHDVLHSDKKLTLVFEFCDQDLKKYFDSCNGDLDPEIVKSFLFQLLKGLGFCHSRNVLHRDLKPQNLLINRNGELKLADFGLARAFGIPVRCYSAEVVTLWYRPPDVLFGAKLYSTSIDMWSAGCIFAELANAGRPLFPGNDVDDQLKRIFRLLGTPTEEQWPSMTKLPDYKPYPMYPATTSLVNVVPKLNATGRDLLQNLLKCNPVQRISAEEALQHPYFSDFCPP
Sequence of NUAK1 (human) (O60285 whole entry, looked up): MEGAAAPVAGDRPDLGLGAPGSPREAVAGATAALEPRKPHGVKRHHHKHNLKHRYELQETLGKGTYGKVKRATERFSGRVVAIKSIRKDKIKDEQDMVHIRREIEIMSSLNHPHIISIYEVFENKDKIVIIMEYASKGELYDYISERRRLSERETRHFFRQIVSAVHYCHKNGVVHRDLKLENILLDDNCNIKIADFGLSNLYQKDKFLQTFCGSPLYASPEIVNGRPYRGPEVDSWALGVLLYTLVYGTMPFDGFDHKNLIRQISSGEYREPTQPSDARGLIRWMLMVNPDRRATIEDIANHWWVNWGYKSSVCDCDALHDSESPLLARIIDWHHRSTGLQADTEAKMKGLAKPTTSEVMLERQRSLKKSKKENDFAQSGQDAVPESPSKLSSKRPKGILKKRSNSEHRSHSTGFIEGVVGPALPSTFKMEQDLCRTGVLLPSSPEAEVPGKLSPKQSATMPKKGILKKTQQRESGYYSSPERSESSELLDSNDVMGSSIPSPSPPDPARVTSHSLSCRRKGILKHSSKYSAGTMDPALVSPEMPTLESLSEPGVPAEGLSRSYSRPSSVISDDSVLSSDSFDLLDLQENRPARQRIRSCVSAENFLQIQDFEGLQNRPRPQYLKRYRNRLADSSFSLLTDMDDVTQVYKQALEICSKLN
Sequence of MAP4K5 (human) (Q9Y4K4 whole entry, looked up): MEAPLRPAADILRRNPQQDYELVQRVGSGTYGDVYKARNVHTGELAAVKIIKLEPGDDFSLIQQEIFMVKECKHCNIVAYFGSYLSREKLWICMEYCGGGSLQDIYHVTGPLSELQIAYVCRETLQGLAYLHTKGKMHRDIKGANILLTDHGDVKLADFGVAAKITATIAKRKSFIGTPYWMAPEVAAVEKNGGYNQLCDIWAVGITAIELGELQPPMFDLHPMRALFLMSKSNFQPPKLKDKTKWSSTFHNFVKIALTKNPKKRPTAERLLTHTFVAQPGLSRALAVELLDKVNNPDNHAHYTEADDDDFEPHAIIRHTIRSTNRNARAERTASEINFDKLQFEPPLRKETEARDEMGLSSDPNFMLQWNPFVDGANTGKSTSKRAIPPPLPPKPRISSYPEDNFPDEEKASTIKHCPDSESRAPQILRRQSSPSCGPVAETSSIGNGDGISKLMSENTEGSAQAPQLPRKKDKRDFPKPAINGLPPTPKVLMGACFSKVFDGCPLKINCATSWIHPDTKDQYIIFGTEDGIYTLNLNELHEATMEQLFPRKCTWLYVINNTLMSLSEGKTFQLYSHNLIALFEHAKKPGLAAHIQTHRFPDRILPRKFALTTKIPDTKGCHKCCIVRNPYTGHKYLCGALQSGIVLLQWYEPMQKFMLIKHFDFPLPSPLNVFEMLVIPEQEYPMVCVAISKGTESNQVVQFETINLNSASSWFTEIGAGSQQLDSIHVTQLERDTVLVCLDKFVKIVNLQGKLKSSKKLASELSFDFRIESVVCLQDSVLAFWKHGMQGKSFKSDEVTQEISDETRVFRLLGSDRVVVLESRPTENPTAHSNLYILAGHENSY
Sequence of MKNK1 (human) (Q9BUB5 whole entry, looked up): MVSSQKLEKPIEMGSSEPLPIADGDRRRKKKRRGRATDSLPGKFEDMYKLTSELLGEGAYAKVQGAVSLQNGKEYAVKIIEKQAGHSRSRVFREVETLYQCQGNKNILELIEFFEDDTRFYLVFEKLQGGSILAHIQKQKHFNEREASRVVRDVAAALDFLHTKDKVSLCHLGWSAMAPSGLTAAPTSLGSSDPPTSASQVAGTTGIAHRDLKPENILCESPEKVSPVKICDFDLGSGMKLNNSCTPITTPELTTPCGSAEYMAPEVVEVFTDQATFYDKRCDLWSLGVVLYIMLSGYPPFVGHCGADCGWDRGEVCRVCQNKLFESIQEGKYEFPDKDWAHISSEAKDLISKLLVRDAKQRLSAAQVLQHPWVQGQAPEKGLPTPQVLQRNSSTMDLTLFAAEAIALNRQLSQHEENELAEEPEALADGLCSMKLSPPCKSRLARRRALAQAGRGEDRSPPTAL
Sequence of DAPK2 (human) (Q9UIK4 whole entry, looked up): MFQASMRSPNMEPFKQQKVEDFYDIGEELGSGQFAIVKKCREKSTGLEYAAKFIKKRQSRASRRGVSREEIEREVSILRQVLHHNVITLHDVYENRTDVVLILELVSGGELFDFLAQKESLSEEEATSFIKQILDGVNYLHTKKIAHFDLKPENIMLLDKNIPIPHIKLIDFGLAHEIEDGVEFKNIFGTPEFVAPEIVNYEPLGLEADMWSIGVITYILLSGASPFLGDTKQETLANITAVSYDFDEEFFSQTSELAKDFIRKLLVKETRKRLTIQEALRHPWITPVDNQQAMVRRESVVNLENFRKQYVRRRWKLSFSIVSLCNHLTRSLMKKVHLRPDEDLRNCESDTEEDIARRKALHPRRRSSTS
Sequence of TAOK2 (human) (Q9UL54 whole entry, looked up): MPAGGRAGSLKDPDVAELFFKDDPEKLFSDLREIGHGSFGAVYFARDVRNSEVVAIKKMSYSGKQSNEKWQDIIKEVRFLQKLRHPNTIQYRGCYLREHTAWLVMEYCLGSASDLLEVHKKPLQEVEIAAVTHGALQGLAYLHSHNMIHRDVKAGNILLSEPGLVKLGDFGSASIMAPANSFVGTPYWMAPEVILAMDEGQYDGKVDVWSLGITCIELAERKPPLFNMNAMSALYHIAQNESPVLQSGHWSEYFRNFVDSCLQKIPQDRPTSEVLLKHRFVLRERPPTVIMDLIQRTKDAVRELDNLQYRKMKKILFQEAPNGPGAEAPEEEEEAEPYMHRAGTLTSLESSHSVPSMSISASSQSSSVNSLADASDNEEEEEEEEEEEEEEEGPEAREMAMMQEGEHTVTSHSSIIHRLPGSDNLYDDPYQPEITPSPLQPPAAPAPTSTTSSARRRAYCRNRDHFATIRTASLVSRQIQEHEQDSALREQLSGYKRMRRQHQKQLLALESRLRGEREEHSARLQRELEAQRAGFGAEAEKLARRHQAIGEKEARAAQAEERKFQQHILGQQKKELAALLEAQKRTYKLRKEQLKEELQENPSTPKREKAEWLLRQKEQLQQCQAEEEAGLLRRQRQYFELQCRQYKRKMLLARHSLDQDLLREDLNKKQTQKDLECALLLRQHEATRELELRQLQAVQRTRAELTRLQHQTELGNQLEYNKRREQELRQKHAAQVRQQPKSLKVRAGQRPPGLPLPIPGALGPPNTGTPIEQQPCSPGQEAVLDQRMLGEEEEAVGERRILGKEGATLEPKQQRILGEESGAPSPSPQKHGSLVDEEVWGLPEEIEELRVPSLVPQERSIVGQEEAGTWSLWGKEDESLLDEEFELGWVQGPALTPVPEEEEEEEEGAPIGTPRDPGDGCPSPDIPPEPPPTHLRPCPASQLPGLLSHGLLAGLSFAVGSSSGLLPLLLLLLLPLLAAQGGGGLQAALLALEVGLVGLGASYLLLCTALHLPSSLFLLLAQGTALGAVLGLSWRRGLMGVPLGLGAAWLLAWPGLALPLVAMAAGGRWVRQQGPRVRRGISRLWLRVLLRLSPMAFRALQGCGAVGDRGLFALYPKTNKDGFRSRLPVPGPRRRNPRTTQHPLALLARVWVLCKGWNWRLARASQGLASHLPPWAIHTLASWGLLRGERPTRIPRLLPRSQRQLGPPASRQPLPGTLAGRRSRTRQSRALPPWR
Sequence of STK11 (human) (Q15831 whole entry, looked up): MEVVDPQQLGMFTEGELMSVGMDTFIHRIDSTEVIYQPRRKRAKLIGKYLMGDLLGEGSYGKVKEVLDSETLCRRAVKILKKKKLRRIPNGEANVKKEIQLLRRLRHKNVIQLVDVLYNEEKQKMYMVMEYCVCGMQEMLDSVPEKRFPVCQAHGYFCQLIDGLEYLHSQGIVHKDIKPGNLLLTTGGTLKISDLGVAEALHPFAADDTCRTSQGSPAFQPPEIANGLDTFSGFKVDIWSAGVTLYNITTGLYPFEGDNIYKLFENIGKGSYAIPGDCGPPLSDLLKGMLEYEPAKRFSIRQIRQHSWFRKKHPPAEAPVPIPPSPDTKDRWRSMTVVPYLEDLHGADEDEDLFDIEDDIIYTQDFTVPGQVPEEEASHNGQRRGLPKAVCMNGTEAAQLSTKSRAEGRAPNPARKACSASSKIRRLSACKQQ
Sequence of MAPK12 (human) (P53778 whole entry, looked up): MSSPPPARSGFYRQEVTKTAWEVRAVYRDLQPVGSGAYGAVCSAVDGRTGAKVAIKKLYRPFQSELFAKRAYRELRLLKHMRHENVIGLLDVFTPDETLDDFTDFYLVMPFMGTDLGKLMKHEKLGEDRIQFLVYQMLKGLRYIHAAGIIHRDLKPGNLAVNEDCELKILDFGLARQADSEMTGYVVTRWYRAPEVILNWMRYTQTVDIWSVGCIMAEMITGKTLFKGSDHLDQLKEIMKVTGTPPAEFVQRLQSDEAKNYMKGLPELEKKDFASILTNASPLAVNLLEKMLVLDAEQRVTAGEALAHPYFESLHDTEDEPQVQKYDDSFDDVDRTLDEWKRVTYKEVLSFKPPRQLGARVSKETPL
Sequence of PIM1 (human) (P11309 whole entry, looked up): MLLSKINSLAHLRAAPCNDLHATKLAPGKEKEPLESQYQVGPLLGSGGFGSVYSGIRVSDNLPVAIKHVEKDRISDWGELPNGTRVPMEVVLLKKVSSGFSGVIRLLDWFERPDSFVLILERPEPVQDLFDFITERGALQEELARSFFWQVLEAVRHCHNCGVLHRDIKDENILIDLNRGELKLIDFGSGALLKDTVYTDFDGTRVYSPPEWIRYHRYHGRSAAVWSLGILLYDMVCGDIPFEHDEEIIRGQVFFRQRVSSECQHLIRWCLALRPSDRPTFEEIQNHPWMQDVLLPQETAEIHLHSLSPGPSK

Structure (SMILES): NC(=O)Nc1cc(-c2cccc(F)c2)sc1C(=O)N[C@@H]1CCCNC1
- kinase still bound, per cent of control (MYLK2 (human)): 67%
- kinase still bound, per cent of control (CSNK1G3 (human)): 4.6%
- kinase still bound, per cent of control (TAOK2 (human)): 35%
- kinase still bound, per cent of control [1]: 0%
- kinase still bound, per cent of control (DAPK2 (human)): 5.4%
- kinase still bound, per cent of control (PLK4 (human)): 0%
- kinase still bound, per cent of control (MAP3K2 (human)): 0%
- kinase still bound, per cent of control (MAPK14 (human)): 100%
- kinase still bound, per cent of control (CAMK2A (human)): 3.6%
- kinase still bound, per cent of control (PIK3CD (human)): 100%
- kinase still bound, per cent of control (MKNK1 (human)): 6%
- kinase still bound, per cent of control [2]: 17%
- kinase still bound, per cent of control (RPS6KB1 (human)): 6.4%
- kinase still bound, per cent of control (NEK1 (human)): 24%
- kinase still bound, per cent of control (SNRK (human)): 2.6%
- kinase still bound, per cent of control (TRPM6 (human)): 74%
- kinase still bound, per cent of control (CDC42BPB (human)): 74%
- kinase still bound, per cent of control [3]: 0%
- kinase still bound, per cent of control [4]: 0.6%
- kinase still bound, per cent of control (PAK2 (human)): 16%
- kinase still bound, per cent of control (MAP3K6 (human)): 25%
- kinase still bound, per cent of control (MAP3K10 (human)): 1.2%
- kinase still bound, per cent of control (MAP4K5 (human)): 0.4%
- kinase still bound, per cent of control (FYN (human)): 0.05%
- kinase still bound, per cent of control (NUAK1 (human)): 0%
- kinase still bound, per cent of control [5]: 0%
- kinase still bound, per cent of control (RPS6KA4 KD1 (human)): 0.2%
- kinase still bound, per cent of control (STK11 (human)): 4.8%
- kinase still bound, per cent of control (PRKCE (human)): 14%
- kinase still bound, per cent of control (BRSK1 (human)): 4.9%
- kinase still bound, per cent of control (GRK4 (human)): 0%
- kinase still bound, per cent of control (PIM1 (human)): 48%
- kinase still bound, per cent of control (MAP3K3 (human)): 0%
- kinase still bound, per cent of control (CDK5 (human)): 100%
- kinase still bound, per cent of control (DCLK2 (human)): 2.4%
- kinase still bound, per cent of control (MAPK12 (human)): 89%
- kinase still bound, per cent of control (STK35 (human)): 1.1%
- kinase still bound, per cent of control (MAP2K1 (human)): 0%

Structure (SMILES): O=C1NC(=O)/C(=C/c2ccc3nccc(-c4ccncc4)c3c2)S1
- kinase still bound, per cent of control (MYLK2 (human)): 46%
- kinase still bound, per cent of control (FER (human)): 50%
- kinase still bound, per cent of control (CSNK1G3 (human)): 2.4%
- kinase still bound, per cent of control (TAOK2 (human)): 50%
- kinase still bound, per cent of control [1]: 68%
- kinase still bound, per cent of control (DAPK2 (human)): 1.7%
- kinase still bound, per cent of control (PLK4 (human)): 40%
- kinase still bound, per cent of control (MAP3K2 (human)): 90%
- kinase still bound, per cent of control (MAPK14 (human)): 100%
- kinase still bound, per cent of control (CAMK2A (human)): 4.8%
- kinase still bound, per cent of control (PIK3CD (human)): 4.8%
- kinase still bound, per cent of control (MKNK1 (human)): 84%
- kinase still bound, per cent of control [2]: 95%
- kinase still bound, per cent of control (RPS6KB1 (human)): 53%
- kinase still bound, per cent of control (NEK1 (human)): 47%
- kinase still bound, per cent of control (SNRK (human)): 100%
- kinase still bound, per cent of control (TRPM6 (human)): 97%
- kinase still bound, per cent of control (CDC42BPB (human)): 66%
- kinase still bound, per cent of control [3]: 31%
- kinase still bound, per cent of control [4]: 94%
- kinase still bound, per cent of control (PAK2 (human)): 21%
- kinase still bound, per cent of control (MAP3K6 (human)): 96%
- kinase still bound, per cent of control (MAP3K10 (human)): 60%
- kinase still bound, per cent of control (MAP4K5 (human)): 41%
- kinase still bound, per cent of control (FYN (human)): 94%
- kinase still bound, per cent of control (NUAK1 (human)): 100%
- kinase still bound, per cent of control [5]: 38%
- kinase still bound, per cent of control (RPS6KA4 KD1 (human)): 79%
- kinase still bound, per cent of control (STK11 (human)): 12%
- kinase still bound, per cent of control (PRKCE (human)): 38%
- kinase still bound, per cent of control (BRSK1 (human)): 73%
- kinase still bound, per cent of control (GRK4 (human)): 47%
- kinase still bound, per cent of control (PIM1 (human)): 1%
- kinase still bound, per cent of control (MAP3K3 (human)): 75%
- kinase still bound, per cent of control (CDK5 (human)): 82%
- kinase still bound, per cent of control (DCLK2 (human)): 91%
- kinase still bound, per cent of control (MAPK12 (human)): 56%
- kinase still bound, per cent of control (STK35 (human)): 49%
- kinase still bound, per cent of control (MAP2K1 (human)): 1.8%
